Ten molecules from ChEMBL document CHEMBL1123666, “Conformationally defined adrenergic agents. 4. 1-(aminomethyl)phthalans: synthesis and pharmacological consequences of the phthalan ring oxygen atom” (J Med Chem, 1987) can be followed below.

For assay [1], the target named is T1, Adrenergic receptor alpha (Homo sapiens) (UniProt P35348+P08913+P18825+P25100+P35368+P18089). As to the kind of experiment: Ratio of Ki of alpha-1 to Ki of alpha-2 adrenoceptor. The assay is classed as protein assay.
Assay [2] has as its target T2, Adrenergic receptor alpha-1 (Homo sapiens, UniProt P35348+P25100+P35368).
T2 sequence (P35348 whole entry): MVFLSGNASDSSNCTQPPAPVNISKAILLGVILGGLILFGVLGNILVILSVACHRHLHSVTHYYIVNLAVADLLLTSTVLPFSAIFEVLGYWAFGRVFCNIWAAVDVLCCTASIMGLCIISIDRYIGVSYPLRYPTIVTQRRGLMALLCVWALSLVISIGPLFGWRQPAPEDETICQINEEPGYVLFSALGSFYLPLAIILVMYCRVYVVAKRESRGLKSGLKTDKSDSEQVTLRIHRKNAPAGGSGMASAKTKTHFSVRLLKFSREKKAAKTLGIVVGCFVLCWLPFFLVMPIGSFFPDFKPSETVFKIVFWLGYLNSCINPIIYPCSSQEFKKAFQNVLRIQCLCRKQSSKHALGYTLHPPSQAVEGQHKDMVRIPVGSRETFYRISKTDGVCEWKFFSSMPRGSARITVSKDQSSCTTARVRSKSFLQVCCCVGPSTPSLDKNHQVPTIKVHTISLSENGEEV
T2 sequence (P25100 whole entry): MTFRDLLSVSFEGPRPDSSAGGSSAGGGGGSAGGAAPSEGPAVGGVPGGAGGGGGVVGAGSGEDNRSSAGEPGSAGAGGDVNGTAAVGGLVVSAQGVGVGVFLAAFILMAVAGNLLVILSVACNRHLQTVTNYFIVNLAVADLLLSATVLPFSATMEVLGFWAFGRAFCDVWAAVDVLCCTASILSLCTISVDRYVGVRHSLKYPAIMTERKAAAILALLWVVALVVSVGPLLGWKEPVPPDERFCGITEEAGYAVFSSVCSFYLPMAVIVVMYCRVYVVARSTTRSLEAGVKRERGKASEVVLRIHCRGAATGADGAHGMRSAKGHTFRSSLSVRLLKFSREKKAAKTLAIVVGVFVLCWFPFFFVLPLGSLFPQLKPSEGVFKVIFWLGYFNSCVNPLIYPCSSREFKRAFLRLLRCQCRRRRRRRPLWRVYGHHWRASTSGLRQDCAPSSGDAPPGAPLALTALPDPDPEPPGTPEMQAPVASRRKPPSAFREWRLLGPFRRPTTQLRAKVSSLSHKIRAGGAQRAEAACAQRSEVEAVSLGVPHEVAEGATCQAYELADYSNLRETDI
T2 sequence (P35368 whole entry): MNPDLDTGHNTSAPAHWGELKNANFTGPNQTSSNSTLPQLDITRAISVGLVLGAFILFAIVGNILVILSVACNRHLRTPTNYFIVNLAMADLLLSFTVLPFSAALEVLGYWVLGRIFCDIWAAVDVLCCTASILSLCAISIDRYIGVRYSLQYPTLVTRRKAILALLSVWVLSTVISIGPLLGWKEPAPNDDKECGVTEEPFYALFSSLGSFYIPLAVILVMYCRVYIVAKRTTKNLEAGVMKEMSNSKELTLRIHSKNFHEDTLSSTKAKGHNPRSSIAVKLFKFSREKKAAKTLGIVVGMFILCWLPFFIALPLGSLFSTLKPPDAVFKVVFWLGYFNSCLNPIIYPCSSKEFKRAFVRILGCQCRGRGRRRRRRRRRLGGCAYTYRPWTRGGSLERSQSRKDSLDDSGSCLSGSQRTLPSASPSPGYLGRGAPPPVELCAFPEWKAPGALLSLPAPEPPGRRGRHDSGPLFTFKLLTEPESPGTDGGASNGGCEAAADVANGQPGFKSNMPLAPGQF
Description: Binding affinity towards alpha 1 adrenergic receptor. The class given is protein assay, Oryctolagus cuniculus.

For assay [3], the target named is T3, Adrenergic receptor alpha-2 (Homo sapiens, UniProt P08913+P18825+P18089).
T3 sequence (P08913 whole entry): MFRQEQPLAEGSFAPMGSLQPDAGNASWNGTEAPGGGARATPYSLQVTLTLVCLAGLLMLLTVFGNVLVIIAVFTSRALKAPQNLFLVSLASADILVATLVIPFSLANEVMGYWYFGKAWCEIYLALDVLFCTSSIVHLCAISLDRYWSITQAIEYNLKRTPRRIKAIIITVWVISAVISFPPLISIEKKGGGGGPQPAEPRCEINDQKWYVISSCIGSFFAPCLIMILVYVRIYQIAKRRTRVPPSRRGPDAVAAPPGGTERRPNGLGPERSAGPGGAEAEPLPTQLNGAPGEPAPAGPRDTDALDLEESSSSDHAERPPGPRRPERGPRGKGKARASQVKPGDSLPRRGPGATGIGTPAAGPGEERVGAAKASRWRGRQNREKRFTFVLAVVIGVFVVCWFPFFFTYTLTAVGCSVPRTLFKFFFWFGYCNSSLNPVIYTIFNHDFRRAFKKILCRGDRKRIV
T3 sequence (P18825 whole entry): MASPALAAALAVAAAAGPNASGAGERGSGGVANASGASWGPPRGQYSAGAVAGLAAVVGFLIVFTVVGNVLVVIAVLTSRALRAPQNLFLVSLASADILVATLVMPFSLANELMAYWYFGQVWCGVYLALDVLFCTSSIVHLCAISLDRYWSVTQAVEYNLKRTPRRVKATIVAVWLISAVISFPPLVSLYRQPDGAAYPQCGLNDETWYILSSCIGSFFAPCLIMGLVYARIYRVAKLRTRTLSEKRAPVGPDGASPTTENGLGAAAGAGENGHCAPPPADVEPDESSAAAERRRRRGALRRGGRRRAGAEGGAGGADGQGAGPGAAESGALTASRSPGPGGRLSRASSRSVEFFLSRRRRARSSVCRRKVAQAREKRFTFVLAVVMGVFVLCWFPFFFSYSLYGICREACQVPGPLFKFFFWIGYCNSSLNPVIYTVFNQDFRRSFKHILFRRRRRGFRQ
T3 sequence (P18089 whole entry): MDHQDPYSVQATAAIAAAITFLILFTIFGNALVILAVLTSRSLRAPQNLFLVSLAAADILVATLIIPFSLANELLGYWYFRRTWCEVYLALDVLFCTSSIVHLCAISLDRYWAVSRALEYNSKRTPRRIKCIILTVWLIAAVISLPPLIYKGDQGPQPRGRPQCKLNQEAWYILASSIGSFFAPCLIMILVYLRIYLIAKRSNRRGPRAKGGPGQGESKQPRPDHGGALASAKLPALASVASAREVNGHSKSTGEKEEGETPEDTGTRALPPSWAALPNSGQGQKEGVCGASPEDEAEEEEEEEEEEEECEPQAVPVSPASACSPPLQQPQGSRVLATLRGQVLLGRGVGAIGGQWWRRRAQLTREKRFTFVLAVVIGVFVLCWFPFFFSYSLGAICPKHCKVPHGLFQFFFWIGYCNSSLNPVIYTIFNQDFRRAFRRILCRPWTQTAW
As to the kind of experiment: Binding affinity towards alpha 2 adrenergic receptor. The class given is protein assay, Canis lupus familiaris.

Assay [4] is described as follows: Ratio of ED50 of NE to ED50 of CPD from Rabbit aorta alpha-1 adrenoceptor. The class given is tissue-based.
The target in assay [5] is T1, Adrenergic receptor alpha (Homo sapiens). Description: In vitro alpha-2 selectivity which is the measure of Ratio of Ki of alpha-1 adrenoceptor to Ki of alpha-2 adrenoceptor. The class given is protein assay.
The nature of assay [6]: Ratio of ED50 of NE to ED50 of CPD from PBZ-pretreated dog alpha-2 adrenoceptor.
The target of assay [7] is Adrenergic receptor alpha-1 (Homo sapiens) (UniProt P35348+P25100+P35368). Description: In vitro alpha 1 adrenergic activity using isolated rabbit aorta expressed as percent maximum response of the tissue to norepinephrine. The assay is classed as functional, tissue-based. Conditions: Oryctolagus cuniculus.
The target in assay [8] is Adrenergic receptor alpha-2 (Homo sapiens) (UniProt P08913+P18825+P18089). As to the kind of experiment: In vitro alpha 2 adrenergic activity uin phenozybenzamine pretreated dog saphenous vein expressed as percent maximum response of the tissue to norepinephrine. Conditions: Canis lupus familiaris. The assay is classed as functional, tissue-based.

For `CCCN(CCC)CC1CCc2c1ccc(O)c2O` (stereo not given), the Ratio in assay [1] was 16. Also, the Ki (as a rule, the dissociation constant of the complex between target and ligand, obtained from inhibition or displacement) in assay [2] is 7.4 µM; in assay [3], 0.47 µM.

`NCC1OCc2cc(O)c(O)cc21` (stereo not given): the Ratio in assay [1] came to 9.7. In addition, the inhibitory constant (Ki) in assay [2] came out at 99 µM; in assay [3], 13 µM.

Consider `CN(C)CC1CCc2c1ccc(O)c2O` (stereo not given), for which the Ratio in assay [1] was 276; in assay [4], 0.27; in assay [5], 7.6; in assay [6] it was 2.05. Besides, the values for the Ki in assay [2] and in assay [3] were 6.9 µM and 0.025 µM, respectively. Besides, the Emax in assay [7] was found to be 105; in assay [8] it was 101.

For `CCCN(CCC)CC1OCc2c1ccc(O)c2O` (stereo not given), in assay [1], the Ratio came to 15. For the same molecule, the Ki in assay [2] stood at 10.3 µM; in assay [3], 0.67 µM.

Take `NCC1OCc2c1ccc(O)c2O` (stereo not given): the Ratio was found to be 127 in assay [1], 0.04 in assay [4], 36.3 in assay [5] and 1.45 in assay [6]. The Ki in assay [2] stood at 9.8 µM; in assay [3], 0.077 µM. Further, the Emax in assay [7] is 107; in assay [8], 90.

Take `NCC1CCc2c1ccc(O)c2O` (stereo not given): the Ratio was found to be 145 in assay [1], 0.017 in assay [4], 209 in assay [5] and 3.55 in assay [6]. Further, the inhibitory constant (Ki) in assay [2] was found to be 2.25 µM; in assay [3], 0.015 µM. The Emax was 102 in assay [7] and 91 in assay [8].

Take `CN(C)CC1OCc2c1ccc(O)c2O` (stereo not given): the Ratio in assay [1] is 109; in assay [4], 1; in assay [5] it was 4; in assay [6], 4. For the same molecule, the Ki in assay [2] turned out to be 1.16 µM; in assay [3], 0.0107 µM. The Emax in assay [7] is 114; in assay [8], 107.

In the case of `CNCC1OCc2c1ccc(O)c2O` (stereo not given), the Ratio came to 112 in assay [1], 0.32 in assay [4], 5.3 in assay [5] and 1.69 in assay [6]. For the same molecule, the Ki in assay [2] stood at 1.97 µM; in assay [3], 0.018 µM. For the same molecule, the Emax in assay [7] came out at 126; in assay [8], 94.

For `NCC1CCc2cc(O)c(O)cc21` (stereo not given), the Ratio in assay [1] was 50. Also, the inhibition constant (Ki) in assay [2] was determined as 26 µM; in assay [3], 0.52 µM.

As for `CNCC1CCc2c1ccc(O)c2O` (stereo not given), the Ratio in assay [1] turned out to be 323; in assay [4] it was 0.27; in assay [5] it was 110; in assay [6] it was 29.6. In addition, the inhibition constant (Ki) was 2 µM in assay [2] and 0.007 µM in assay [3]. Also, the figures for the Emax in assay [7] and in assay [8] were 109 and 81, respectively.
